Data: patent US10202375B2, “N-pyridinyl acetamide derivatives as Wnt signalling pathway inhibitors” (Redx Pharma PLC, priority 2014, dated 2019)

Test system: Wnt pathway (L-Wnt cells producing murine Wnt-3a; Leading Light Wnt Reporter Cells)
Test: Dual-Cell β-Catenin Reporter Assay
Format: cell-based, Mouse
Settings: luciferase signal reduced to 50% of DMSO control
Method: Dual-Cell β-Catenin Reporter Assay
Mouse L cells transfected to constitutively produce biologically active murine Wnt-3a, referred to as L-Wnt cells, were purchased from the American Type Culture Collection, ATCC, Manassas, Va. (ATCC). These cells were cultured in DMEM supplemented with 10% FCS (Gibco/Invitrogen, Carlsbad, Calif.), 1% geneticin and 1% sodium pyruvate (Sigma) at 37° C. with 5% CO2. The cells were seeded into 96 well plates and treated with serial dilutions of compound diluted to 0.1% DMSO concentration. After 24 hours, cell supernatants were transferred to a 96 well plate previously seeded with Leading Light® Wnt Reporter Cells, stably transfected with a luciferase gene under control of Wnt pathway response elements. After a further 24 hours, cells are treated with One-glo luciferase assay system (Promega, Madison, Wis.) and the luminescent signal read by envision.

| Molecule | IC50 (category symbols) | IC50 (Mus musculus, category symbols) | other results |
| --- | --- | --- | --- |
| 2-[4-(2-methyl-4-pyridyl)pyrazolo[3,4-b]pyridin-1-yl]-N-(6-pyrazin-2-yl-3-pyridyl)acetamide [compound 15] | 1 to 5 nM | – | – |
| 2-[4-(2-methyl-4-pyridyl)imidazo[4,5-c]pyridin-1-yl]-N-(5-pyrazin-2-yl-2-pyridyl)acetamide [compound 20] | 1 to 5 nM | – | – |
| Cc1cc(-c2nccc3c2ccn3CC(=O)Nc2ccc(-c3cnccn3)cn2)ccn1 [compound 23, 2-[4-(2-methyl-4-pyridyl)pyrrolo[3,2-c]pyridin-1-yl]-N-(5-pyrazin-2-yl-2-pyridyl)acetamide] | – | < 1 nM | IC50 (Mus musculus, specific values): 0.43 nM |
| Cn1nccc1-c1ccnc2c1ccn2CC(=O)Nc1ccc(-c2cnccn2)cn1 [compound 31, 2-[4-(2-methylpyrazol-3-yl)pyrrolo[2,3-b]pyridin-1-yl]-N-(5-pyrazin-2-yl-2-pyridyl)acetamide] | – | < 1 nM | IC50 (Mus musculus, specific values): 0.89 nM |
| Cc1cc(-c2ccnc3c2ccn3CC(=O)Nc2ccc(-c3cnccn3)nc2)ccn1 [ID No. 17, 2-[4-(2-methyl-4-pyridyl)pyrrolo[2,3-b]pyridin-1-yl]-N-(6-pyrazin-2-yl-3-pyridyl)acetamide] | – | < 1 nM | – |
| CN1CCN(c2ccnc3c2ccn3CC(=O)Nc2ccc(-c3cnccn3)cn2)CC1 [compound 28, 2-[4-(4-methylpiperazin-1-yl)pyrrolo[2,3-b]pyridin-1-yl]-N-(5-pyrazin-2-yl-2-pyridyl)acetamide] | > 5 nM | – | – |
| Cc1cc(-c2nc(N)nc3c2ccn3CC(=O)Nc2ccc(-c3cnccn3)cn2)ccn1 [compound 8, 2-[2-amino-4-(2-methyl-4-pyridyl)pyrrolo[2,3-d]pyrimidin-7-yl]-N-(5-pyrazin-2-yl-2-pyridyl)acetamide] | – | < 1 nM | – |
| Cc1cc(-c2ncnc3c2ncn3CC(=O)Nc2ccc(-c3cnccn3)cn2)ccn1 [compound 19, 2-[6-(2-methyl-4-pyridyl)purin-9-yl]-N-(5-pyrazin-2-yl-2-pyridyl)acetamide] | > 5 nM | – | – |
| CC1CN(c2ccnc3c2ccn3CC(=O)Nc2ccc(-c3cnccn3)cn2)CC(C)N1 (stereo not shown) [compound 29, 2-[4-(3,5-dimethylpiperazin-1-yl)pyrrolo[2,3-b]pyridin-1-yl]-N-(5-pyrazin-2-yl-2-pyridyl)acetamide] | > 5 nM | – | – |
| Cc1cc(-c2ncnc3c2cc(C)n3CC(=O)Nc2ccc(-c3cnccn3)cn2)ccn1 [compound 13, 2-[6-methyl-4-(2-methyl-4-pyridyl)pyrrolo[2,3-d]pyrimidin-7-yl]-N-(5-pyrazin-2-yl-2-pyridyl)acetamide] | – | > 5 nM | – |
| Cc1cc(-c2ncnc3c2cnn3CC(=O)Nc2ccc(-c3cnccn3)cn2)ccn1 [ID No. 22, 2-[4-(2-methyl-4-pyridyl)pyrazolo[3,4-d]pyrimidin-1-yl]-N-(5-pyrazin-2-yl-2-pyridyl)acetamide] | – | 1 to 5 nM | – |
| 2-[5-methyl-4-(2-methyl-4-pyridyl)pyrrolo[2,3-b]pyridin-1-yl]-N-(5-pyrazin-2-yl-2-pyridyl)acetamide [ID No. 1] | < 1 nM | – | IC50 (specific values): 0.32 nM |
| Cn1nccc1-c1ncnc2c1ccn2CC(=O)Nc1ccc(-c2cnccn2)cn1 [compound 18, 2-[4-(2-methylpyrazol-3-yl)pyrrolo[2,3-d]pyrimidin-7-yl]-N-(5-pyrazin-2-yl-2-pyridyl)acetamide] | – | 1 to 5 nM | – |
| Cc1cc(-c2ccnc3c2ccn3CC(=O)Nc2ccc(-c3cnccn3)nc2)ccn1 [compound 17, 2-[4-(2-methyl-4-pyridyl)pyrrolo[2,3-b]pyridin-1-yl]-N-(6-pyrazin-2-yl-3-pyridyl)acetamide] | 1 to 5 nM | – | – |
| 2-[6-methyl-4-(2-methyl-4-pyridyl)pyrrolo[2,3-d]pyrimidin-7-yl]-N-(5-pyrazin-2-yl-2-pyridyl)acetamide [ID No. 13] | < 1 nM | – | – |
| Cc1cc(-c2ccnc3c2cnn3CC(=O)Nc2ccc(-c3cnccn3)cn2)ccn1 [compound 25, 2-[4-(2-methyl-4-pyridyl)pyrazolo[3,4-b]pyridin-1-yl]-N-(5-pyrazin-2-yl-2-pyridyl)acetamide] | – | < 1 nM | – |
| Cc1cc(-c2ncnc3c2cnn3CC(=O)Nc2ccc(-c3cnccn3)nc2)ccn1 [compound 14, 2-[4-(2-methyl-4-pyridyl)pyrazolo[3,4-d]pyrimidin-1-yl]-N-(6-pyrazin-2-yl-3-pyridyl)acetamide] | – | 1 to 5 nM | – |
| Cc1cc(-c2c(F)cnc3c2ccn3CC(=O)Nc2ccc(-c3cnccn3)cn2)ccn1 [ID No. 2, 2-[5-fluoro-4-(2-methyl-4-pyridyl)pyrrolo[2,3-b]pyridin-1-yl]-N-(5-pyrazin-2-yl-2-pyridyl)acetamide] | – | < 1 nM | – |
| Cc1cc(-c2ncnc3c2ccn3CC(=O)Nc2ccc(-c3cnccn3)nc2)ccn1 [compound 16, 2-[4-(2-methyl-4-pyridyl)pyrrolo[2,3-d]pyrimidin-7-yl]-N-(6-pyrazin-2-yl-3-pyridyl)acetamide] | – | > 5 nM | – |
| Cn1nccc1-c1nccc2c1ccn2CC(=O)Nc1ccc(-c2cnccn2)cn1 [compound 4, 2-[4-(2-methylpyrazol-3-yl)pyrrolo[3,2-c]pyridin-1-yl]-N-(5-pyrazin-2-yl-2-pyridyl)acetamide] | – | 1 to 5 nM | – |
| Cn1nccc1-c1ccnc2c1cnn2CC(=O)Nc1ccc(-c2cnccn2)cn1 [compound 6, 2-[4-(2-methylpyrazol-3-yl)pyrazolo[3,4-b]pyridin-1-yl]-N-(5-pyrazin-2-yl-2-pyridyl)acetamide] | > 5 nM | – | – |
| Cc1cc(-c2nc(Cl)nc3c2ccn3CC(=O)Nc2ccc(-c3cnccn3)cn2)ccn1 [compound 12, 2-[2-chloro-4-(2-methyl-4-pyridyl)pyrrolo[2,3-d]pyrimidin-7-yl]-N-(5-pyrazin-2-yl-2-pyridyl)acetamide] | – | < 1 nM | – |
| O=C(Cn1ccc2c(-c3ccnc(C(F)(F)F)c3)ncnc21)Nc1ccc(-c2cnccn2)cn1 [compound 21, N-(5-pyrazin-2-yl-2-pyridyl)-2-[4-[2-(trifluoromethyl)-4-pyridyl]pyrrolo[2,3-d]pyrimidin-7-yl]acetamide] | – | < 1 nM | – |
| Cc1cc(-c2cncc3c2ccn3CC(=O)Nc2ccc(-c3cnccn3)cn2)ccn1 [compound 24, 2-[4-(2-methyl-4-pyridyl)pyrrolo[2,3-c]pyridin-1-yl]-N-(5-pyrazin-2-yl-2-pyridyl)acetamide] | – | < 1 nM | – |
| Cc1cc(-c2ncnc3c2cnn3CC(=O)Nc2ccc(-c3cnccn3)cn2)ccn1 [compound 22, 2-[4-(2-methyl-4-pyridyl)pyrazolo[3,4-d]pyrimidin-1-yl]-N-(5-pyrazin-2-yl-2-pyridyl)acetamide] | < 1 nM | – | – |
